{
  "source": "paper PMC5762338",
  "about": "“A novel orally available Syk/Src/Jak2 inhibitor, SKLB-850, showed potent anti-tumor activities in B cell lymphoma (BCL) models” (Oncotarget, 2017)",
  "key": {"CDK3": {"target": "T1, CDK3 (Homo sapiens, UniProt Q00526)", "T1 construct": "purchased Millipore (Kinase Profiler service)", "T1 sequence (Q00526 whole entry)": "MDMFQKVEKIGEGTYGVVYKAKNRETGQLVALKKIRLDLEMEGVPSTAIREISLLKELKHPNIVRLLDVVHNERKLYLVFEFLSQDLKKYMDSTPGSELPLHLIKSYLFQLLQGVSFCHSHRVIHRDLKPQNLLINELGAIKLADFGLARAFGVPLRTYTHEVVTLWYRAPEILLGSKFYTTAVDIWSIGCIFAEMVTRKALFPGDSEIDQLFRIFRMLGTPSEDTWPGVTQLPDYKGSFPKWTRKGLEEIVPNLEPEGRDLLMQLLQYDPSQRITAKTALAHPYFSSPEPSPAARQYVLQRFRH", "T1 sequence (P24864 whole entry partner)": "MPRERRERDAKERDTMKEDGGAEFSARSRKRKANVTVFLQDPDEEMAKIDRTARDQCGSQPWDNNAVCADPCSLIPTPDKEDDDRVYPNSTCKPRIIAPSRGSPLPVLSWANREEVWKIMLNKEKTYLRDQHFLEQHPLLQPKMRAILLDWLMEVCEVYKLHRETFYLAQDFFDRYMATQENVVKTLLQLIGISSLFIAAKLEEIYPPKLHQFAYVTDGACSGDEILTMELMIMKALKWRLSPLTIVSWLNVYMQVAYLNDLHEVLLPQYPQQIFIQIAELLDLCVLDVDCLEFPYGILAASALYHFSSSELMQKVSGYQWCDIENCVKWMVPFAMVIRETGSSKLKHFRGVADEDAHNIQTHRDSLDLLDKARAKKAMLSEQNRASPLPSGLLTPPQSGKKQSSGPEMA", "assay": "Kinase inhibition, 33P radiometric assay (Millipore Kinase Profiler)", "format": "biochemical", "method": "(§1) Kinase inhibitory potency of SKLB-850 against a number of selected kinases were measured with gold-standard^33 P radio-labeled technology. […] For the remaining 11 kinases tested, SKLB-850 exibited very weak or no activity (IC50 > 10 μM).\n(§2) The IC50 values of SKLB-850 for kinase inhibition in vitro were measured by radiometric assays conducted by Kinase Profiler service provided by Millipore as described in Pan’s study."}, "EphB3": {"target": "T2, EphB3 (Homo sapiens, UniProt P54753)", "T2 construct": "purchased Millipore (Kinase Profiler service)", "T2 sequence (P54753 34-998)": "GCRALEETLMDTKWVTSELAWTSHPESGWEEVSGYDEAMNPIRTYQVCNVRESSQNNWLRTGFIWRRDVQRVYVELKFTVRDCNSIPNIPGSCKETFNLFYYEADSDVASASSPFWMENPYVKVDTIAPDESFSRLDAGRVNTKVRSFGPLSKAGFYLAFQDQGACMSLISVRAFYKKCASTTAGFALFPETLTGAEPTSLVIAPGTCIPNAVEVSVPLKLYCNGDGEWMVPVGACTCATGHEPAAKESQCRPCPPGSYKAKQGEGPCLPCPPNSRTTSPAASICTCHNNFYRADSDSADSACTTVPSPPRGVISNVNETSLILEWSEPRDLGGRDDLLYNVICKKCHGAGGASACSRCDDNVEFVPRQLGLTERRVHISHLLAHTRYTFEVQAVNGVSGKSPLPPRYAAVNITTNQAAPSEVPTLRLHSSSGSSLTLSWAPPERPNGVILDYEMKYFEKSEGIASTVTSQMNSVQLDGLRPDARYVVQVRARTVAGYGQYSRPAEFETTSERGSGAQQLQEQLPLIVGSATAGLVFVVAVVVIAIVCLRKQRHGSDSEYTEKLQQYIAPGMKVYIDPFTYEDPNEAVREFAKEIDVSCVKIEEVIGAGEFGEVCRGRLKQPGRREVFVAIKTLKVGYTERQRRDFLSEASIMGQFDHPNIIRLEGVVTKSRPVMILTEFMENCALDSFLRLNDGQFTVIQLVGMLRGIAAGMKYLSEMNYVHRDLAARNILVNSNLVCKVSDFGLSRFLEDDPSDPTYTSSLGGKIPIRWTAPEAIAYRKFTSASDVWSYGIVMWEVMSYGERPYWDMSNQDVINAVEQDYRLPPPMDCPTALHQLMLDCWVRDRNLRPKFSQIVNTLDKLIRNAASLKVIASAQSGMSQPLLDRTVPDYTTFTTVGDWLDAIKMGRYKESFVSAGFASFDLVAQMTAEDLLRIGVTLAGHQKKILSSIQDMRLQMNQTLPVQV", "assay": "Kinase inhibition, 33P radiometric assay (Millipore Kinase Profiler)", "format": "biochemical", "method": "as §1, §2"}, "FAK": {"target": "T3, FAK (Homo sapiens, UniProt Q05397)", "T3 construct": "purchased Millipore (Kinase Profiler service)", "T3 sequence (Q05397 whole entry)": "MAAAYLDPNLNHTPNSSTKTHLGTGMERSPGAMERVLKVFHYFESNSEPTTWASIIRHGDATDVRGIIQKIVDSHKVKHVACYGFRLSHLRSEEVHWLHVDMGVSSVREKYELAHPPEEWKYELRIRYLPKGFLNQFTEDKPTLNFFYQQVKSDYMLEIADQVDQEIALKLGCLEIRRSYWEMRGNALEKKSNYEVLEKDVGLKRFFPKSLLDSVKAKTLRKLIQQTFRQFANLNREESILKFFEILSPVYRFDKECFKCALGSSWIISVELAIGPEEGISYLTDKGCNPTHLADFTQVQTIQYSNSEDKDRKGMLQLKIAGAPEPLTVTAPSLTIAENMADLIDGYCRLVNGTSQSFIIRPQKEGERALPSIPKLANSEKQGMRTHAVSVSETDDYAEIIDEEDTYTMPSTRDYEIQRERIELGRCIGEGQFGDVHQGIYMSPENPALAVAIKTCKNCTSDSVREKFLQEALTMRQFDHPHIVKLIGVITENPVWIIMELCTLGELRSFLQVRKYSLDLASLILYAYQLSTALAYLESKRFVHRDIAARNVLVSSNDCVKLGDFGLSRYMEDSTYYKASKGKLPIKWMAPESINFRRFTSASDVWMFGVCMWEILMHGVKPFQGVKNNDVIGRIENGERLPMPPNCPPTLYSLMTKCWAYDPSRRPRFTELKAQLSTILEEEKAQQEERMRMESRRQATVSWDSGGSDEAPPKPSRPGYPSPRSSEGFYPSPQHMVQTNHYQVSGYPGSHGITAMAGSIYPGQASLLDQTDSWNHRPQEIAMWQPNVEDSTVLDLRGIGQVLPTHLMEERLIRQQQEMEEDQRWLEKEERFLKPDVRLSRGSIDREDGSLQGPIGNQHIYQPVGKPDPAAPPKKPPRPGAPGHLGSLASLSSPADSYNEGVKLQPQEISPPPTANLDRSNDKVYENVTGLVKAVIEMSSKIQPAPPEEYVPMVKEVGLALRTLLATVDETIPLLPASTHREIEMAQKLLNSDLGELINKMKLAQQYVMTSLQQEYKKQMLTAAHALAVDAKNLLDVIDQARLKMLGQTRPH", "assay": "Kinase inhibition, 33P radiometric assay (Millipore Kinase Profiler)", "format": "biochemical", "method": "as §1, §2"}, "GRK1": {"target": "T4, GRK1 (Homo sapiens, UniProt Q15835)", "T4 construct": "purchased Millipore (Kinase Profiler service)", "T4 sequence (Q15835 whole entry)": "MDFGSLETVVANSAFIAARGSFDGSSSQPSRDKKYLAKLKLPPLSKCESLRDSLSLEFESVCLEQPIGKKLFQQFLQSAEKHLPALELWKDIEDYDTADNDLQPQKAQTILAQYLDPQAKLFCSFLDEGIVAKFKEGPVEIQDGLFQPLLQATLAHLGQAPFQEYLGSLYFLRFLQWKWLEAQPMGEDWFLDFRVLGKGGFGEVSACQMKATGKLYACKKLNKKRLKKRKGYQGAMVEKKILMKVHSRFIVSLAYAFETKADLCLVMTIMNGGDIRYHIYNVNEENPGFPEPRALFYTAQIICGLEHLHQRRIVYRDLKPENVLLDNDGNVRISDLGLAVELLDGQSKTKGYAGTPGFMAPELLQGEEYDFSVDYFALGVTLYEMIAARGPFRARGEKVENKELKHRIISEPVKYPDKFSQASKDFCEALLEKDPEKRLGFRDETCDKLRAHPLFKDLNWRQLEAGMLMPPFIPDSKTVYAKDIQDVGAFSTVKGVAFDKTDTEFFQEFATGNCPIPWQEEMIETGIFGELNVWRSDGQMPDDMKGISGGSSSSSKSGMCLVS", "assay": "Kinase inhibition, 33P radiometric assay (Millipore Kinase Profiler)", "format": "biochemical", "method": "as §1, §2"}, "GSK3α": {"target": "T5, GSK3α (Homo sapiens, UniProt P49840)", "T5 construct": "purchased Millipore (Kinase Profiler service)", "assay": "Kinase inhibition, 33P radiometric assay (Millipore Kinase Profiler)", "format": "biochemical", "method": "as §1, §2"}, "GSK3β": {"target": "T6, GSK3β (Homo sapiens, UniProt P49841)", "T6 construct": "purchased Millipore (Kinase Profiler service)", "T6 sequence (P49841 whole entry)": "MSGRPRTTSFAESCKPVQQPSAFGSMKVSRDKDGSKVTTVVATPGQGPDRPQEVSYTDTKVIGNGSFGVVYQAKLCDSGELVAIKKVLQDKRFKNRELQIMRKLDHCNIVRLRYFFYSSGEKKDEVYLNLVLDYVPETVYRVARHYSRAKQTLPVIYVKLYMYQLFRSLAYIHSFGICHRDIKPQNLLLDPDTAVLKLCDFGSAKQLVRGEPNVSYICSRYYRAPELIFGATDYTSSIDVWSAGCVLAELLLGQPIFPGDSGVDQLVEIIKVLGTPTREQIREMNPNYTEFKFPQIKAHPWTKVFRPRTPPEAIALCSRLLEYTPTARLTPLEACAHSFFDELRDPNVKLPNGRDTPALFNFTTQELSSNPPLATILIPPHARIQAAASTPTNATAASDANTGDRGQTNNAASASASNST", "assay": "Kinase inhibition, 33P radiometric assay (Millipore Kinase Profiler)", "format": "biochemical", "method": "as §1, §2"}, "JAK2": {"target": "T7, JAK2 (Homo sapiens, UniProt O60674)", "T7 construct": "purchased Millipore (Kinase Profiler service)", "assay": "Kinase inhibition, 33P radiometric assay (Millipore Kinase Profiler)", "format": "biochemical", "method": "as §1, §2"}, "PIP4K2α": {"target": "T8, PIP4K2α (Homo sapiens, UniProt P48426)", "T8 construct": "purchased Millipore (Kinase Profiler service)", "assay": "Kinase inhibition, 33P radiometric assay (Millipore Kinase Profiler)", "format": "biochemical", "method": "as §1, §2"}, "PKBα": {"target": "T9, PKBα (Homo sapiens, UniProt P31749)", "T9 construct": "purchased Millipore (Kinase Profiler service)", "T9 sequence (P31749 whole entry)": "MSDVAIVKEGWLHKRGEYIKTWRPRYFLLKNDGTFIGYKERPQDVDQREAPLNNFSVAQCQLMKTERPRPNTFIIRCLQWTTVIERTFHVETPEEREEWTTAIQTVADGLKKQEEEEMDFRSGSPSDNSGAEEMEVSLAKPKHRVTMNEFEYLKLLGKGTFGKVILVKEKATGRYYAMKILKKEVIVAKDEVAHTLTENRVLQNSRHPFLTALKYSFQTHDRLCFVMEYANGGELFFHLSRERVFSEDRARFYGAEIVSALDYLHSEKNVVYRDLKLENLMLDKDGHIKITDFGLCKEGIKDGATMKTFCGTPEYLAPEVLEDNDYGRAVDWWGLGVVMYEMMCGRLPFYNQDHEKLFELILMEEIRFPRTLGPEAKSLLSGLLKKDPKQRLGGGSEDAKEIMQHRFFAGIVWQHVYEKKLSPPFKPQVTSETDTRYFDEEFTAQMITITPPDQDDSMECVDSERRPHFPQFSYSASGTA", "assay": "Kinase inhibition, 33P radiometric assay (Millipore Kinase Profiler)", "format": "biochemical", "method": "as §1, §2"}, "PKCα": {"target": "T10, PKCα (Homo sapiens, UniProt P17252)", "T10 construct": "purchased Millipore (Kinase Profiler service)", "assay": "Kinase inhibition, 33P radiometric assay (Millipore Kinase Profiler)", "format": "biochemical", "method": "as §1, §2"}, "Pim-1": {"target": "T11, Pim-1 (Homo sapiens, UniProt P11309)", "T11 construct": "purchased Millipore (Kinase Profiler service)", "assay": "Kinase inhibition, 33P radiometric assay (Millipore Kinase Profiler)", "format": "biochemical", "method": "as §1, §2"}, "Pim-2": {"target": "T12, Pim-2 (Homo sapiens, UniProt Q9P1W9)", "T12 construct": "purchased Millipore (Kinase Profiler service)", "assay": "Kinase inhibition, 33P radiometric assay (Millipore Kinase Profiler)", "format": "biochemical", "method": "as §1, §2"}, "Src": {"target": "T13, Src (Homo sapiens, UniProt P12931)", "T13 construct": "purchased Millipore (Kinase Profiler service)", "T13 sequence (P12931 whole entry)": "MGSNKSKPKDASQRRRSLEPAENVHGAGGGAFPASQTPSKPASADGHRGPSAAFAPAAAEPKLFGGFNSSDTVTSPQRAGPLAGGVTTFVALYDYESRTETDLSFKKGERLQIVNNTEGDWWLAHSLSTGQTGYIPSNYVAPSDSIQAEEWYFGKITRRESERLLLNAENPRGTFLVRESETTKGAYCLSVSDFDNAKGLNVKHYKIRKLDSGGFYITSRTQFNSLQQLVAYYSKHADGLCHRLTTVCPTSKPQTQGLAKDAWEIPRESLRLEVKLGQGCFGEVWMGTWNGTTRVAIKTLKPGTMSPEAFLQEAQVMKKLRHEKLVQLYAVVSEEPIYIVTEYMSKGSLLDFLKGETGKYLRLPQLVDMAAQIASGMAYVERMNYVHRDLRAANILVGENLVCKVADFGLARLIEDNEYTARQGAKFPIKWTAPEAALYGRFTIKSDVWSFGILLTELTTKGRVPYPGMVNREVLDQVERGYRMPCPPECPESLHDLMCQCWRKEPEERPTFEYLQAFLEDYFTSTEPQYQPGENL", "assay": "Kinase inhibition, 33P radiometric assay (Millipore Kinase Profiler)", "format": "biochemical", "method": "as §1, §2"}, "Syk": {"target": "T14, Syk (Homo sapiens, UniProt P43405)", "T14 construct": "purchased Millipore (Kinase Profiler service)", "assay": "Kinase inhibition, 33P radiometric assay (Millipore Kinase Profiler)", "format": "biochemical", "method": "as §1, §2"}, "mTOR": {"target": "T15, mTOR (Homo sapiens, UniProt P42345)", "T15 construct": "purchased Millipore (Kinase Profiler service)", "assay": "Kinase inhibition, 33P radiometric assay (Millipore Kinase Profiler)", "format": "biochemical", "method": "as §1, §2"}, "[1]": {"system": "CCL3 secretion of Ramos cells", "assay": "ELISA of chemokine secretion after anti-IgM and anti-CD40 stimulation", "format": "cell-based, Human", "conditions": "anti-IgM and anti-CD40 induced, 0.1μM, 18 hours, n=3, stimulated without compound 3443.00 ± 134.80 pg/mL", "method": "(§3) We then measured the concentrations of CCL3 and CCL4 in supernatant of Ramos cells cultured in medium, or medium supplemented with anti-IgM and anti-CD40 in the presence or absence of SKLB-850 after 18 hours. CCL3 and CCL4 are chemokines, which appear to correlate with the signaling capacity of the BCR [26]. As shown in Figure 3A and 3B, SKLB-850 inhibited the increased secretion of CCL3 and CCL4 stimulated by anti-IgM and anti-CD40. The mean CCL3 and CCL4 concentrations in supernatants of Ramos cells after anti-IgM and CD40 stimulation were 3443.00 ± 134.80 pg/mL and 134.80 ± 1.90 pg/mL, respectively.\n(§4) To evaluate the effect of SKLB-850 on CCL3 and CCL4 secretion after stimulation of Ramos cells with anti-IgM (30 μg/ml) and anti-CD40 (10 μg/ml), chemokine levels were measured in supernatants of activated BCL cells, as previously described. After 18 hours of anti-IgM and anti-CD40 co-culture, supernatants were harvested and assayed for CCL3 and CCL4 by quantitative enzyme-linked immunosorbent assays according to the manufacturer’s instructions (Quantikine, R&D Systems, Minneapolis, MN, USA)."}, "[2]": {"system": "CCL4 secretion of Ramos cells", "assay": "ELISA of chemokine secretion after anti-IgM and anti-CD40 stimulation", "format": "cell-based, Human", "conditions": "anti-IgM and anti-CD40 induced, 0.1μM, 18 hours, n=3, stimulated without compound 134.80 ± 1.90 pg/mL", "method": "as §3, §4"}, "[3]": {"assay": "Preliminary toxicity evaluation in treated mice", "format": "in vivo", "method": "A preliminary toxicity evaluation to SKLB-850 was also carried out. […] Besides, toxic pathologic changes in liver, lung, kidney, spleen, and heart were not detected by microscopic examination (Figure 5C).\nTo investigate potential side effects or toxicity on mice during the treatment, anorexia skin ulceration, weight loss, diarrhea, and toxic death were observed continuously for relevant indexes. The tissues of heart, liver, spleen, lung, and kidney were stained with hematoxylin and eosin (H&E). ALT, AST, BUN and CREA in serum were measured by the National Chengdu Center for Safety Evaluation of Traditional Chinese Medicine using commercially available kits."}, "[4]": {"system": "Syk/ERK, Src/FAK and JAK2/STAT3 signaling pathways in Ramos cell", "assay": "Western blot of Syk/ERK, Src/FAK and JAK2/STAT3 signaling", "format": "cell-based, Human", "set-up": "Syk, Src, JAK2 phosphorylation (in words): dose or concentration left out as unconfirmed", "conditions": "24 hours", "method": "To understand the mechanism of antitumor activities in vivo, pivotal protein activities of Syk/ERK, Src/FAK and JAK2/STAT3 signaling pathways were detected by Western blot analysis. […] Immunohistochemistry assays were performed using tumor tissues isolated from the Ramos tumor model at the end of treatment.\nFigure 7 Western blot and histochemical analyses of tumor tissues from the Ramos model (A) SKLB-850 inhibited Syk/ERK, Src/FAK and JAK2/STAT3 signaling pathways. The Ramos cells were incubated for 24 hours in medium containing vehicle, SKLB-850, or R788, and then lysed for western blot assay. (B) H&E staining and immunohistochemical staining of NF-κB, p-Src, p-STAT3 and p-Syk in tumor tissues isolated from vehicle, R788 or SKLB-850 treated groups. SKBL-850 inhibited p-JAK2, p-FAK, p-Src, p-ERK and p-Syk expression in RAMOS cells.\nFor Ramos cell immunoplot studies, cancer cells were incubated with vehicle, R788, or SKLB-850 for 24 hours, and then lysed in RIPA buffer (Beyotime, China) containing Roche protease inhibitor cocktail, and the protein concentrations were determined by the Bradford method. […]"}},
  "data": [
    {"smiles": "CN1CCN(c2ccc(Nc3ncc(F)c(Nc4ccc(Cl)cc4C(N)=O)n3)cc2)CC1", "note": "[SKLB-850, 5-chloro-2-((5-fluoro-2-((4-(4-methylpiperazin-1-yl)phenyl)amino)pyrimidin-4-yl)amino) benzamide]", "values": [
      {"measurement": "IC50", "setting": "CDK3", "value": "> 10", "unit": "µM"},
      {"measurement": "IC50", "setting": "EphB3", "value": "> 10", "unit": "µM"},
      {"measurement": "IC50", "setting": "FAK", "value": 390, "unit": "nM"},
      {"measurement": "IC50", "setting": "GRK1", "value": "> 10", "unit": "µM"},
      {"measurement": "IC50", "setting": "GSK3α", "value": "> 10", "unit": "µM"},
      {"measurement": "IC50", "setting": "GSK3β", "value": "> 10", "unit": "µM"},
      {"measurement": "IC50", "setting": "JAK2", "value": 47, "unit": "nM"},
      {"measurement": "IC50", "setting": "PIP4K2α", "value": "> 10", "unit": "µM"},
      {"measurement": "IC50", "setting": "PKBα", "value": 3.18, "unit": "µM"},
      {"measurement": "IC50", "setting": "PKCα", "value": "> 10", "unit": "µM"},
      {"measurement": "IC50", "setting": "Pim-1", "value": "> 10", "unit": "µM"},
      {"measurement": "IC50", "setting": "Pim-2", "value": "> 10", "unit": "µM"},
      {"measurement": "IC50", "setting": "Src", "value": 25, "unit": "nM"},
      {"measurement": "IC50", "setting": "Syk", "value": 41, "unit": "nM"},
      {"measurement": "IC50", "setting": "mTOR", "value": "> 10", "unit": "µM"},
      {"measurement": "CCL3 level in supernatant", "setting": "[1]", "value": "2303.10 ± 109.40", "unit": "pg/mL"},
      {"measurement": "CCL4 level in supernatant", "setting": "[2]", "value": "15.20 ± 0.30", "unit": "pg/mL"},
      {"measurement": "toxic pathologic changes in liver, lung, kidney, spleen, and heart (H&E, in words)", "setting": "[3]; microscopic examination", "value": "not detected"},
      {"measurement": "mouse body weight (in words)", "setting": "[3]; treated groups, monitored once every three days", "value": "no significant differences in weights"},
      {"measurement": "levels of ALT, AST, BUN, and CREA of serum (in words)", "setting": "[3]; treated mice", "value": "no obvious changes"},
      {"measurement": "Syk, Src, JAK2 phosphorylation (in words)", "setting": "[4]", "value": "effectively inhibited"},
      {"measurement": "phosphorylation levels of ERK, FAK and Stat3 (in words)", "setting": "[4]; concentrations between 0.01μMl and 1μM/ml", "value": "down-regulated"}
    ]}
  ]
}
